# Data taken from patent US6339104B1, “Therapeutic agent for primary biliary cirrhosis” (The City of Osaka, priority 1998, dated 2002).
# Test system: patient with primary biliary cirrhosis (stage IV in Scheuer classification)
# Experiment: Clinical effect of oral L-alanine in a patient with terminal-stage primary biliary cirrhosis
# Type: in vivo, human
# Experimental: The clinical effect of L-alanine was examined in a patient with primary biliary cirrhosis. The patient was suffering from primary biliary cirrhosis in the terminal stages (stage IV in Scheuer classification). After their symptoms had appeared, 600 mg/day of ursodeoxycholic acid was orally administered as a therapeutic agent everyday. However, this treatment became ineffective and the results of biochemical tests also became worse. Under these conditions, 18 g/day of L-alanine was orally administered to the patient in three doses every day for two months. Before and after the administration of L-alanine, two weeks in total of the observation period was taken, and then eight weeks of the administration period was taken. The blood specimen was taken once a week to determine total serum bilirubin and transaminase (AST). By the administration of L-alanine, total serum bilirubin and transaminase were reduced. […] As the administration was finished, increase of both total serum bilirubin and transaminase was observed.
# [1] = observation period after end of 18 g/day oral administration
# [2] = patient, 18 g/day orally in three doses, eight weeks administration, weekly blood specimen
smiles,measurement,setting,value
C[C@H](N)C(=O)O [L-alanine],time of maximum effect after the start of the administration,"18 g/day orally, effect on total serum bilirubin and transaminase, lasted in the course of the administration",two
same,therapeutic effect on the terminal case of primary biliary cirrhosis (symptoms),"L-alanine 18 g/day orally, ursodeoxycholic acid 600 mg/day orally",excellent therapeutic effect
same,total serum bilirubin after the administration was finished,[1],increase
same,transaminase after the administration was finished,[1],increase
same,total serum bilirubin,[2],reduced
same,transaminase (AST),[2],reduced
